According to patent publication US10864216B2, “Phenothiazine diaminium salts and their use” (WisTa Laboratories Ltd., priority 2011, dated 2020):

How the values were obtained:
[1] = Solubility of LMT salts in aqueous HCl solutions at 37° C.; assay type: physicochemical; conditions: aqueous HCl solution pH 2.00 (21.4° C.); lower limit complete dissolution, upper limit saturation
Protocol: Two aqueous solutions (pH 2.00 and 3.01 at 21.4° C.) were prepared by carefully adding HCl (5 M) to deionised water. In each experiment a 5 ml aliquot of one of the aforementioned solutions was heated to 37° C. […] This step was repeated until no further dissolution took place.

[2] = pH dependence of solubility of LMT.2MsOH in buffered aqueous solutions at 25° C.; assay type: physicochemical; conditions: aqueous buffer, thermodynamic from solid
Protocol: In related experiments three buffered stock solutions were prepared (pH 2, pH 3, and pH 7) as follows: A solution of (0.2 M) potassium chloride (KCl) (0.745 g in 50 mL of deionised water) was initially prepared. From this solution 50 mL was taken and diluted with approximately 80 mL of deionised water. A (0.2 M) hydrochloric acid (HCl) solution was then used to adjust the pH to 2, before further dilution with deionised water to make up to 200 mL. A final pH of 2.00 at 21.6° C. was recorded. A solution of (0.1 M) potassium hydrogen phthalate (2.042 g in 100 mL of deionised water) was initially prepared. From this solution 100 mL was taken and diluted with approximately 50 mL of deionised water. A 0.2 M HCl solution was then used to adjust the pH to 3, before further dilution with deionised water to make up to 200 mL. A final pH of 2.99 at 21.7° C. was recorded. A solution of (0.1 M) potassium phosphate monobasic (KH2PO4) (1.370 g in 100 mL of deionised water) was initially prepared. From this solution 100 mL was taken and diluted with approximately 80 mL of deionised water. A 0.5 M sodium hydroxide (NaOH) solution was then used to adjust the pH to 7, before further dilution with deionised water to make up to 200 mL. A final pH of 7.07 at 22° C. was recorded. […] This vial was placed into a water bath set at 25° C. To the solution was added LMT.2MsOH in 1-1.5 g portions. After each addition, a 10 minutes stir time was allowed to ensure maximum opportunity for dissolution. The homogeneity of the mixture was judged by eye. If solid was still present, after the stir time, as judged by visual inspection, the saturation point was judged to have been reached. The viscosity of the resulting mixtures precluded adequate isolation of the excess solid, therefore it was not possible to determine exact solubility values.

[3] = target: T1, truncated tau (amino acids 297-391) in solution binding to solid-phase bound truncated tau (residues 297-390) (Homo sapiens, UniProt P10636); assay: Solid phase assay for tau aggregation (tau-tau binding, B50); conditions: concentration at which tau-tau binding is decreased by 50%; mean ± SE
T1 construct: made in house
Source text: The tau-tau aggregation assay uses purified recombinant tau fragments in a solid-phase immunoassay. Methods are described in detail in e.g. WO 96/30766. Briefly, the assay measures the binding of truncated tau (amino acids 297-391) in solution to solid-phase bound truncated tau (residues 297-390). Binding of the former is detected with the antibody mAb 423, which specifically recognises peptides containing a C-terminal Glu-391 residue. The Tau complex formed in vitro is similar to the aggregated complex that forms in Alzheimer's disease as a consequence of the stability of the pathological Tau-Tau binding interaction through a 94/95-amino acid repeat domain (residues 297-390), found in the proteolytically stable core of the paired helical filament.
The B50 value (expressed as mean±SE) is determined as the concentration of compound at which tau-tau binding is decreased by 50%.

[4] = test system: female Wistar rats; assay: 14 day oral administration to rats: toxicology and neutrophil response; assay type: in vivo
Source text: Table: Neutrophil response in rats following 14 day oral administration of different salt forms of LMT.

[5] = test system: rats; assay: Studies on the hemopoietic system (methemoglobinemia), rat; assay type: in vivo
[6] = test system: minipigs; assay: Studies on the hemopoietic system (methemoglobinemia), minipig; assay type: in vivo
Protocol: Studies on the hemopoietic system were performed in rat, monkey and minipig.

[7] = Pharmacokinetics: plasma concentration of the MT moiety in pig; assay type: in vivo; conditions: oral doses 2 and 15 mg/kg
[8] = test system: rat, stomach (non glandular); assay: Gastric irritation: 28-day rat study with LMT.2MsOH; assay type: in vivo; parameters: key to Gastritis, grade 2 (slight): incidence / Gastritis, grade 3 (moderate): incidence / Gastritis, total incidence / Inflammatory cell infiltration, grade 1 (minimal): incidence / Inflammatory cell infiltration, grade 2 (slight): incidence / Gastritis, grade 1 (minimal): incidence: “—” = finding not present; 1 = minimal; 2 = slight; 3 = moderate; 4 = moderately severe; 5 = severe; conditions: for Gastritis, total incidence / Gastritis, grade 1 (minimal): incidence / Gastritis, grade 2 (slight): incidence / Gastritis, grade 3 (moderate): incidence / Inflammatory cell infiltration, grade 1 (minimal): incidence / Inflammatory cell infiltration, grade 2 (slight): incidence: 90 mg/kg/day, 28-day, 10 examined; for Gastritis, total incidence: number of animals; for Gastritis, grade 1 (minimal): incidence / Gastritis, grade 2 (slight): incidence / Gastritis, grade 3 (moderate): incidence / Inflammatory cell infiltration, grade 1 (minimal): incidence / Inflammatory cell infiltration, grade 2 (slight): incidence: terminal kill, cell = number of animals
Source text: Study (28-day rat study with LMT.2MsOH): Incidence and severity of selected microscopic findings in sternum, liver, spleen and stomach from terminal animals

[9] = Dynamic vapour sorption (DVS); assay type: physicochemical; conditions: crystalline, 25° C., relative humidity range between 0% and 70%
Protocol: FIGS. 15a and 15b show the dynamic vapour sorption (DVS) curve for crystalline LMT.2MsOH measured at 25° C. with 5%/h scanning rate. The horizontal dashed lines indicate steps of water uptake of one equivalent. […] Above this r.h., the water uptake increased rapidly, and the sample ultimately deliquesced. Upon drying, the water content decreased again to approximately 4 equiv. at 50% r.h.
Projekt Messtechnik SPS 11-100n water vapor sorption analyzer. The samples were placed in aluminum crucibles on top of a microbalance and were equilibrated at 25° C. and 50% r.h. before starting a pre-defined humidity program at 25° C. (50-0-95-50% r.h., scanning with Δ r.h.=5% h^−1 and with ‘isohumid’ equilibration periods at the extreme values).

[10] = target: full-length human tau protein (htau40) and truncated tau (295-390, dGA) in 3T6 mouse cells (Homo sapiens, UniProt P10636); assay: Cell-based tau aggregation assay

T1 sequence (P10636 614-708): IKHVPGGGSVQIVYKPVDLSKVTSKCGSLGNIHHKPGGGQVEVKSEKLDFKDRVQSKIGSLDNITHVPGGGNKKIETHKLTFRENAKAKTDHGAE
T1 sequence (P10636 614-707): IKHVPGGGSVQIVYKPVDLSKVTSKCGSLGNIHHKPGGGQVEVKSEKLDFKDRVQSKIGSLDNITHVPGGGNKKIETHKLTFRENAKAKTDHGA

CN(C)c1ccc2c(c1)Sc1cc(N(C)C)ccc1N2.CS(=O)(=O)O.CS(=O)(=O)O [LMT.2MsOH, N,N,N′,N′-tetramethyl-10H-phenothiazine-3,7-diaminium bis(methanesulfonate)]
Solubility g/5 ml (37° C.) [1]: 8.825-9.943 g/5 ml
solubility at 10 min ([2]; buffered aqueous solution pH 2.00, 25° C.): 1600 to 1770 mg/mL
solubility at 10 min ([2]; buffered aqueous solution pH 2.99, 25° C.): 1980 to 2090 mg/mL
solubility at 10 min ([2]; buffered aqueous solution pH 7.07, 25° C.): 2030 to 2110 mg/mL
IC50 [3]: 238 ± 74.2 µM
Neutropaenia in prepared blood smears (mature neutrophils) ([4]; 14 days): no decrease
Neutrophils (total neutrophils as percentage of total white cells) ([4]; 14 days oral, 95 mg MT/kg/day Days 1-10, 60 mg MT/kg/day Days 11-14): 18.30%
Dose-related deaths ([4]; 14 days oral, animal numbers per group of 8 rats): 0/8
Early neutrophils (frequency of presence of immature neutrophils per animal group) ([4]; 14 days oral, animals per group of 8): 1/8
Lowest dose at which methemoglobinemia was observed [5]: 30 mg MT/kg/day
Lowest dose at which methemoglobinemia was observed [6]: 10 mg MT/kg/day
Methemoglobinemia ([6]; 3 mg MT/kg/day, first 28-days of dosing in the 9-month study): no indications of methemoglobinemia
Cmax of MT moiety in plasma, fold greater than that for LMT.2HCl or LMT.2HBr [7]: more than 2 fold
Tmax ([7]; plasma): 1 h
Gastric irritation compared with LMT.2HBr ([8]; 28-day rat studies): less gastric irritation
Gastritis, total incidence ([8]; female rats): 3
Gastritis, grade 1 (minimal): incidence ([8]; female rats): —
Gastritis, grade 2 (slight): incidence ([8]; female rats): 2
Gastritis, grade 3 (moderate): incidence ([8]; female rats): 1
Inflammatory cell infiltration, grade 1 (minimal): incidence ([8]; female rats): 4
Inflammatory cell infiltration, grade 2 (slight): incidence ([8]; female rats): 1
Gastritis, total incidence ([8]; male rats): 2
Gastritis, grade 1 (minimal): incidence ([8]; male rats): —
Gastritis, grade 2 (slight): incidence ([8]; male rats): 2
Gastritis, grade 3 (moderate): incidence ([8]; male rats): —
Inflammatory cell infiltration, grade 1 (minimal): incidence ([8]; male rats): 4
Inflammatory cell infiltration, grade 2 (slight): incidence ([8]; male rats): —
Weight change in dynamic vapour sorption [9]: less than 0.5%
EC50 [10]: 0.19 ± 0.04 µM
therapeutic index greater compared with MTC [10]: 63%
THx, therapeutic index (THx = LD50/EC50) ([10]; LD50/EC50): 179
